Source: patent US12122811B2, “BDNF mimetic peptide amphiphiles” (Northwestern University, priority 2018, dated 2024)
Non-standard residues stand in square brackets, D forms with d. Primed or numbered codes have the meaning given here. No end group written: not given here. PEG6′ = PEG6 spacer

Legend:
cortical neurons = test: Infiltration and maturation of cortical neurons on 3D PA gel scaffolds; format: cell-based, mouse; details: neurons on gels, one week
Protocol: Gels were made using annealed PAs prepared with methods described herein 1. BDNF native protein or BDNF peptide were incorporated by mixing at 10 nM or 0.5 uM respectively, with E2 Filler PA gel at 1 wt % while it was in its liquid state. Silicon isolators with adhesive (Invitrogen) were placed on PDL coated glass coverslips. 70 μL of PA liquid was pipetted into the circular silicon well and a Transwell insert was placed flush with the top of the well of the silicon insert. This step ensured a flat, even thickness for all gels. Gelling solution comprised of 125 mM NaCl, 3 mM KCl, and 25 mM CaCl2 was pipetted into the Transwell insert and allowed to slowly soak down into the material from the top. The insert prevented the gel from swelling more than the thickness of the silicon isolator. All gels were incubated at 37° C. for 5 min before removing the Transwell insert.
Infiltration Study. Gels were prepared as described in 2.1.2. Gels were then rinsed with media one time before cells were seeded on top at a density of approximately 42,000 cells/well. Cells were cultured for one week in vitro. Half of the gels were analyzed by patch clamp analysis (see section 3.4.9. Other gels were fixed with 4% PFA to perform infiltration studies. Cell were stained for MAP2, TUJ-1 and DAPI using immunocytochemistry methods described previously. Confocal microscopy was used to make z-stack reconstructions of each gel. The MultiMeasure function in the ROI manager of ImageJ was used to measure the depth of pixels for each channel which was then plotted as intensity vs depth in the gel. The average intensity of MAP2 was measured by averaging the mean intensities obtained from maximum intensity projections of z-stacks images of gels.

[1] = tested on: mouse model of spinal cord injury; test: Mouse model of spinal cord injury, Basso Mouse Scale hind limb scoring; format: in vivo; details: 12 weeks after injury; BDNF PA co-assembled at 20 mol % with E2 PA gel, injected 24 h after injury
Text: The spinal cord injury procedures used follow a standardized protocol to ensure a reproducible injury. Mice were anesthetized and their back is opened to reveal the vertebral column. The vertebral bone at T11 was surgically removed to reveal the spinal cord tissue. The mice were then transferred the impactor machine which is used to inflict a compression injury on the exposed spinal cord. The spinal cord was held in place using stereotactic clamps. The instrument inflicts a force of 70-80 kDynes and dwells in the place of the impact for 60 seconds to simulate a crush injury accident. This injury is quite severe. After each impact was performed, the instrument supplies a graph corresponding to the real force and trajectory of the impactor. This graph is used to compare and ensure that all animals receive an injury of the same nature. After the injury is inflicted, the animals were closed and allowed to rest for 24 hours.
The next day, the animals were re-opened and prepared for the “treatment” surgery. Before beginning the procedure, all animals underwent a behavioral assessment and mice with hind limb movement were discarded from the study. When the animal is re-opened, there was typically a dark, bruised area apparent where the crush injury took place the previous day. This is where the treatment was injected. A Hamilton syringe attached to a glass-pulled needle with a diameter of ˜300 μm was used to puncture the bruised dermis of the tissue and the treatment was injected into the underlying tissue cavity. Treatment types include; saline, and the C16V2A2E2 (E2) non-bioactive PA gel as negative controls, as well as the BDNF PA co-assembled at 20 mol % with the E2 non-bioactive PA gel.
After injection, the animals were closed and returned to cages to recover. Over the next 12 weeks, blinded hind limb behavioral scoring was performed to assess any functional changes (FIG. 21). A standardized “Basso Mouse Scale” was used (Basso et al. J Neurotrauma. 2006 May; 23(5):635-59.; herein incorporated by reference in its entirety). Two blinded researchers were either side of a runway where the mouse was guided to move in a straight line. As the mouse walks, each researcher grades the limb movement. Any discrepancies in evaluation were re-evaluated by a third researcher. The score for the two limbs was averaged and marked as the score for that animal.

TrkB receptor = biological target: T1, TrkB receptor (Mus musculus, UniProt P15209); test: TrkB receptor phosphorylation (p-TrkB) by western blot in primary cortical neurons; format: cell-based; details: for TrkB phosphorylation: 4 and 6 h timepoints, 0.5 μM
T1 construct: Protein was extracted from primary neuronal cultures; endogenous in cells; host or cells: primary cortical neurons from E16 CD1 mouse embryos, 14 DIV
T1 sequence (P15209 32-821): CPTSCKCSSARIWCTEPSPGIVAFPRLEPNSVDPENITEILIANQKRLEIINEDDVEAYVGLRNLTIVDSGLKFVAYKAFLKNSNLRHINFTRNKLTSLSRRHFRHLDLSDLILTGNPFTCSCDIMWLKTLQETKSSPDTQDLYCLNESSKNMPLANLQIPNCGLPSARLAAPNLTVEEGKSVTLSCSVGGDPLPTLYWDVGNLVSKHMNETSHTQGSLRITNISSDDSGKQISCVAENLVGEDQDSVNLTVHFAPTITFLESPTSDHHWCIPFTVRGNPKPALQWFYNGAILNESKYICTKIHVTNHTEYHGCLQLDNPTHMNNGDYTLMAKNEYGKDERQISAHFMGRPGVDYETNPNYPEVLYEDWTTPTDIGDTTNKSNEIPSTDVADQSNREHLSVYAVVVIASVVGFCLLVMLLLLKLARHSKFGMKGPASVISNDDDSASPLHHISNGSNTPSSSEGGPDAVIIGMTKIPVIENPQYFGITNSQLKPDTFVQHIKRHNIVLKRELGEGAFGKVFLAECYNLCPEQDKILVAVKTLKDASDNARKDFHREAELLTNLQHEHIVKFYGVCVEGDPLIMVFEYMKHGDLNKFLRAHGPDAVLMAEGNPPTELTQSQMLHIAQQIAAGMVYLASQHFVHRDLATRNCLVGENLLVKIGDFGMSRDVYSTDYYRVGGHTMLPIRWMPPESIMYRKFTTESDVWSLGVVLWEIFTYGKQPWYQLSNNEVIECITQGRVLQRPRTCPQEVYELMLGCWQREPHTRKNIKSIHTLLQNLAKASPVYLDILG
Protocol: 2.3.2. Dissection of Embryonic Primary Cortical Neurons. Neurons were obtained from embryonic brains as described elsewhere.^2 Briefly, time-pregnant mouse was sacrificed by cervical dislocation and the embryos were extracted at embryonic day 16 (E16). Cerebral cortices were dissected from the mouse embryos and meninges were removed in a solution of Hank's Balanced Salt Solution (HBSS) with 1% pen-strep (Invitrogen) and then digested with trypsin (Invitrogen) and DNAse (Sigma-Aldrich) for 10 min at 37° C. The tissue was mechanically dissociated, centrifuged at 1000 g for 5 min, and resuspended in CO2-equilibrated Neurobasal (NB) neuronal culture medium (Invitrogen) supplemented with 10% normal horse serum (NHS) (Invitrogen), 1% pen-strep (Invitrogen), 0.5 mM L-glutamine (Invitrogen), and 5.8 μL NaHCO3/mL (Sigma-Aldrich). The cell suspension was pre-plated at 37° C. for 30 min. Afterwards, the supernatant was collected, passed through a cell strainer with 100 μm pore size and centrifuged at 1000 g for 5 min. The pellet was resuspended in NB neuronal culture medium (1% NHS, 1% pen-strep, 0.5 mM L-glutamine, 22 μM glutamic acid (Sigma-Aldrich), 2% B27 (Gibco), and 5.8 μL NaHCO3/mL (Sigma-Aldrich), and plated at different densities (depending on the type of experiment, see below) directly on tissue culture plates coated with poly-D-lysine (Sigma-Aldrich). After 24 hs, the medium was replaced with serum-free neuronal culture medium (1% pen-strep, 0.5 mM L-glutamine, 2% B27, 5.8 μL NaHCO3/mL). Under these conditions, we obtained a neuron-enriched culture with a composition of approximately 10% glial cells.
BDNF PA Treatments and Cell Culture Procedures. Treatments were prepared by dissolving PA (including E2 Filler, E2 Filler+E4PEG, E2 Filler+Linear BDNF, E2 Filler+BDNF PAs) and BDNF peptide at different concentrations (0.5, 1.0 or 5.0 μM), in media without serum or B27 supplement or starvation media. Unless otherwise noted, BDNF PA, Linear BDNF PA, or E4PEG PAs were co-assembled at 10 mol % with E2 filler PA (total concentration of PA was 5.0, 10.0, or 50.0 μM respectively). For the co-assembly ratio study, BDNF PA was co-assembled at 10, 20, 50, 70, 90, and 100 mol %. Human/Murine/Rat BDNF protein (Peprotech) was resuspended at different concentrations (0.25, 0.5 and 1 nM) in starvation media.
For western blot, cells were cultured in 6 well plates at a density of approximately 900,000 cells/well for 14 DIV before being treated. Treatments were added for 2, 4, 6, 8, 12 or 24 h in vitro before protein was harvested. […] Protein was extracted after six hours of treatment.
Western Blot. Protein was extracted from primary neuronal cultures with Halt Protease and Phosphatase Inhibitor Cocktail (Thermo Scientific) and a BCA assay (Thermo Scientific) was performed to determine protein content of each sample. Cell protein was loaded into and separated using a 4-20% SDS-PAGE gel (Bio-Rad). It was then electrotransferred from the gel to a nitrocellulose membrane (Bio-Rad). The membranes were blocked with 5% milk solution (Bio-Rad) for 30 minutes followed by an overnight incubation with primary antibodies at 4° C. The following primary antibodies were used: rabbit anti-pTrkB (1:1000, Cell Signaling), rabbit anti-TrkB (1:1000, Cell Signaling), rabbit anti-Actin (1:2000, Sigma Aldrich), mouse anti-Actin (1:2000, Sigma Aldrich), rabbit anti-pPLCγ (1:1000, Cell Signaling), rabbit anti-PLCγ (1:1000, Cell Signaling), rabbit anti-pAKT (1:2000, Cell Signaling), mouse anti-AKT (1:2000, Cell Signaling), rabbit anti-pERK1+ERK2 (1:1000, Abcam), rabbit anti-ERK 1/2 (1:1000, Cell Signaling), rabbit anti-PSD95 (1:1000, Abcam), rabbit anti-MAP-2 (1:2000, BioLegend), and mouse anti-Tuj-1 (1:1000, BioLegend). Membranes were then incubated with their corresponding secondary HRP-conjugated antibodies (1:1000; ThermoFisher). Protein signals were detected using Radiance Bioluminescent ECL substrate (Azure Biosystems). […]

Row | Compound | distance that neurites infiltrated from the top of the scaffold (cortical neurons) [μm] | normalized average of MAP2 intensity (cortical neurons) | final average limb behavioral score (Basso Mouse Scale) [1] | TrkB phosphorylation (TrkB receptor) | TrkB phosphorylation after pre-treatment with inhibitor K252a (TrkB receptor; K252a 2 h prior to treatment, 6 h post-treatment)
1 | C16V2A2E2 (EEAAVV) [E2 Filler PA] | 36.9±9.9 | 0.32±0.06 | 2.4 | none of these control conditions were able to induce TrkB phosphorylation | –
2 | COC(=O)[C@@]1(O)C[C@H]2O[C@]1(C)n1c3ccccc3c3c4c(c5c6ccccc6n2c5c31)C(=O)NC4 [K252a, reference compound] | – | – | – | – | completely blocked
3 | Linear BDNF PA: non-cyclized BDNF PA synthesized as a control (chain 1 RKK[aK][dP][PEG6′]EEEEAAVV; chain 2 EEAAVV; not fully specified (C-terminus)) | – | – | – | lack of TrkB phosphorylation | –
